The results in this text go back to PubChem BioAssay (NCI).

SMILES strings stand for the structures.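 96-well plates; 48 h exposure; 5 concentrations. Endpoints by linear interpolation between flanking doses. Not reached: highest tested concentration assigned. TGI denotes the concentration required for complete inhibition of growth.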 Some results are limits rather than exact numbers.

Common to all, as to assay: DTP human tumour cell line panel, 48 h
The test system of assay [1] is HCT-15 colon.
Assay [2] deals with M14 melanoma.
For assay [3], the system named is SF-539 CNS.
For assay [4], the system named is SK-MEL-5 melanoma.
For assay [5], the system named is T-47D breast.
The subject of assay [6] is UACC-257 melanoma.
Assay [7] relates to UACC-62 melanoma.
The test system of assay [8] is SK-MEL-2 melanoma.
Assay [9] has as its system HL-60(TB) leukemia.
In assay [10] the test system is SNB-19 CNS.
For assay [11], the system named is TK-10 renal.
The test system of assay [12] is MCF7 breast.
In assay [13] the test system is MOLT-4 leukemia.
Assay [14] relates to IGROV1 ovarian.
Assay [15] deals with HS 578T breast.
Assay [16] deals with KM12 colon.

Turning to `COC(=O)C(Cc1ccccc1)NC(=O)C(CCC(=O)OCc1ccccc1)NC(=O)OC(C)(C)C` (centres undefined), the TGI in assay [1], in assay [2], in assay [3], in assay [4], in assay [5] and in [6] was more than 100 µM throughout. The TGI in assay [7], in [8], in assay [9], in assay [10], in assay [11] and in [12] was more than 100 µM each time. The TGI in [13], in assay [14], in assay [15] and in [16] was more than 100 µM each time.

In the case of `CCOC(=O)C1(C#N)C(c2ccccc2)CC(O)(c2ccc([N+](=O)[O-])cc2)C(C(=O)c2ccc([N+](=O)[O-])cc2)C1c1ccccc1` (centres undefined), the TGI in assay [1], in assay [2], in [6], in assay [7], in [8] and in assay [9] was more than 100 µM throughout. For the same compound, the TGI in assay [10], in assay [11], in assay [13], in [14] and in assay [16] was more than 100 µM each time.

Regarding `CC(C)N(C(=O)C1(C)CC1)C(C)C`, the total growth inhibition concentration (TGI) in assay [1], in [2], in assay [3], in assay [4], in assay [6] and in assay [7] was more than 100 µM throughout. Moreover, the TGI in assay [8], in [9], in [10], in [13], in [14] and in [16] was more than 100 µM in each case.

Turning to `CCOc1cc2ccc3c4cc(OC)c(OC)cc4cnc3c2cc1OCC`, the TGI in [1], in assay [2], in [3], in assay [4], in assay [6] and in [7] was more than 100 µM throughout. Besides, the TGI in assay [8], in assay [10], in assay [11], in [13], in [14] and in [16] was more than 100 µM in each case.

As to `COc1ccc2c(c1)CCN=C2Cc1ccccc1CCCl`, the TGI (in general, the concentration giving total growth inhibition) was more than 100 µM in assay [1]; 46.1 µM in assay [2]; 45.8 µM in [3]; 36.6 µM in assay [4]; more than 100 µM in [5]; 88.9 µM in assay [6]. Moreover, the TGI in assay [7] was 52.7 µM; in [8], 58.3 µM; in assay [9], 48.6 µM; in assay [10], more than 100 µM; in assay [11], more than 100 µM; in [12], more than 100 µM. For the same compound, the TGI was more than 100 µM in assay [13], more than 100 µM in assay [14], more than 100 µM in assay [15] and 74.6 µM in assay [16].

Turning to `CC(C)C1C(=O)NC(CO)Cc2c[nH]c3c(C(c4c[nH]c5ccccc45)C(O)CO)ccc(c23)N1C` (centres undefined), the TGI in assay [2], in assay [3], in assay [4], in assay [6], in assay [7] and in [8] was more than 100 µM throughout. In addition, the TGI in assay [9], in assay [10], in [11], in assay [13], in [14] and in [16] was more than 100 µM in each case.

With `COc1c(C)c2c(c3c1c(=O)c1ccccc1n3C)C=CC(C)(C)O2`, the TGI in [1] is more than 100 µM; in [2] it was 37.9 µM; in assay [3], 44.9 µM; in [4], 31.1 µM; in [6] it was 76.6 µM; in [7], 33.4 µM. Besides, the TGI is 48.3 µM in [8]; 30.2 µM in [9]; more than 100 µM in assay [10]; more than 100 µM in assay [11]; 67.8 µM in [13]; more than 100 µM in assay [14]. In addition, the TGI in [16] stood at 60.9 µM.

For the compound `O=C1CCCC2=C1CC1=C(CCCC1=O)N2c1ccccc1C(=O)O`, the TGI in assay [1], in assay [2], in assay [3], in [4], in [7] and in assay [9] was more than 100 µM throughout. Besides, the TGI in [10], in assay [11], in assay [12], in assay [13], in [14] and in assay [15] was more than 100 µM each time. The compound further returned a TGI in assay [16] of more than 100 µM.

For the compound `O=c1c(-c2ccccc2)c2oc(c1-c1ccccc1)CS(=O)(=O)CCC2`, the TGI in assay [1] was 32.9 µM; in assay [3] it was 42.4 µM; in assay [4] it was 85 µM; in assay [6] it was more than 100 µM; in assay [7], 54.3 µM; in assay [8], more than 100 µM. Further, the TGI in assay [9], in assay [10], in assay [11], in assay [13], in assay [14] and in assay [16] was more than 100 µM each time.

Regarding `CC1CN(c2ccc(Cl)cc2)CC(C)(C)OC(=O)O1` (centres undefined), the TGI in assay [1], in assay [2], in [3], in [4], in assay [6] and in assay [7] was more than 100 µM in each case. The TGI in assay [8], in [9], in assay [10], in [11], in assay [14] and in assay [16] was more than 100 µM each time.
